Measured values taken from patent EP0982317A1, “Bivalent inhibitors of the proteasome” (Max-Planck-Gesellschaft zur Förderung der Wissenschaften …, priority 1998, dated 2000).
Where two headings read alike, the source gives them in different places. Where a SMILES comes first, the peptide text is derived from it. [ ]: non-standard residue; d: D form. Nle = CCCC[C@H](N)C(=O)O

What was measured:
Type in all cases: biochemical
[1] = target: T1, yeast proteasome β2/β2' (trypsin-like activity) (Saccharomyces cerevisiae, UniProt P25043); test: Proteasome assay, trypsin-like activity (fluorogenic substrate Bz-Phe-Val-Arg-AMC); set-up: Three of the seven different β-type subunits are processed at the threonine-1 residue; conditions: 5.56 nM proteasome, Tris-buffer pH 7.5, incubated with inhibitor 1 h at 37°C, Bz-Phe-Val-Arg-AMC 8 µM, read-out: Inhibition of yeast proteasome (IC50) β2/β2'
Method: (§1) A solution of proteasome from Saccharomyces cerivisiae in Tris-buffer (pH 7.5; 450 µl; 6.67 nM for PGPH, 5.56 nM for trypsin-like and 1.11 nM for chymotrypsin-like activity) was incubated with the inhibitors at varying concentrations ([…]) for 1 h at 37°C. The fluorogenic substrates for PGPH (Z-Leu-Leu-Gly-βNA, 40 µM), trypsin-like (Bz-Phe-Val-Arg-AMC, 8 µM) and chymotrypsin-like assays (Suc-Leu-Leu-Val-Tyr-AMC, 8 µM) were dissolved in the same Tris-buffer with a minimum amount of DMSO and added to the enzyme solution at 37 °C to reach a final volume of 500 µl. Fluorescence excitation/emission wavelengths were 360 nm/460 nm for AMC and 335 nm/410 nm for βNA. The rates of hydrolysis were monitored by the fluorescence increase and the initial linear portions of curves (100-300 sec) were used to calculate the IC50 values.

[2] = target: T2, yeast proteasome β1/β1' (PGPH) (Saccharomyces cerevisiae, UniProt P38624); test: Proteasome assay, PGPH activity (fluorogenic substrate Z-Leu-Leu-Gly-βNA); conditions: 6.67 nM proteasome, Tris-buffer pH 7.5, incubated with inhibitor 1 h at 37°C, Z-Leu-Leu-Gly-βNA 40 µM, read-out: Inhibition of yeast proteasome (IC50) β1/β1'
Method: as §1

[3] = target: T3, yeast proteasome β5/β5' (chymotrypsin-like activity) (Saccharomyces cerevisiae, UniProt P30656); test: Proteasome assay, chymotrypsin-like activity (fluorogenic substrate Suc-Leu-Leu-Val-Tyr-AMC); set-up: Three of the seven different β-type subunits are processed at the threonine-1 residue; conditions: 1.11 nM proteasome, Tris-buffer pH 7.5, incubated with inhibitor 1 h at 37°C, Suc-Leu-Leu-Val-Tyr-AMC 8 µM, read-out: Inhibition of yeast proteasome (IC50) β5/β5'
Method: as §1

[4] = target: T1, yeast proteasome β2/β2' (trypsin-like activity); test: Proteasome assay, trypsin-like activity (fluorogenic substrate Bz-Phe-Val-Arg-AMC); set-up: endogenous in cells; host or cells: Saccharomyces cerevisiae (isolated native complex; purification, strain and supplier not described); conditions: 5.56 nM proteasome, Tris-buffer pH 7.5, incubated with inhibitor 1 h at 37°C, Bz-Phe-Val-Arg-AMC 8 µM, read-out: Inhibition of yeast proteasome (IC50) β2/β2'
Method: as §1

[5] = target: T2, yeast proteasome β1/β1' (PGPH); test: Proteasome assay, PGPH activity (fluorogenic substrate Z-Leu-Leu-Gly-βNA); set-up: endogenous in cells; host or cells: Saccharomyces cerevisiae (isolated native complex; purification, strain and supplier not described); conditions: 6.67 nM proteasome, Tris-buffer pH 7.5, incubated with inhibitor 1 h at 37°C, Z-Leu-Leu-Gly-βNA 40 µM, read-out: Inhibition of yeast proteasome (IC50) β1/β1'
Method: as §1

[6] = target: T3, yeast proteasome β5/β5' (chymotrypsin-like activity); test: Proteasome assay, chymotrypsin-like activity (fluorogenic substrate Suc-Leu-Leu-Val-Tyr-AMC); set-up: endogenous in cells; host or cells: Saccharomyces cerevisiae (isolated native complex; purification, strain and supplier not described); conditions: for IC50: chymotrypsin-like activity, 1.11 nM proteasome, Tris-buffer pH 7.5, incubated with inhibitor 1 h at 37°C, Suc-Leu-Leu-Val-Tyr-AMC 8 µM, read-out: Inhibition of yeast proteasome (IC50) β5/β5'
Method: as §1

Compound | IC50 [1] | IC50 [2] | IC50 [3] | IC50 [4] | IC50 [5] | IC50 [6] | increase in binding affinity ([6]; chymotryptic activity, compared to inhibitor 1 or to the monovalent inhibitor 2)
CCCC[C@@H](C=O)NC(=O)[C@H](CC(C)C)NC(=O)[C@H](CC(C)C)NC(C)=O [Inhibitor 1, Ac-Leu-Leu-Nle-H] (Ac-Leu-Leu-[Nle]-aldehyde) | > 100 µM | > 100 µM | 2.1 µM | – | – | – | –
(PEG)18-25-[NH-CO-(CH2)2-CO-Leu-Leu-Nle-H]2 [Inhibitor 3] | – | – | – | > 100 µM | > 100 µM | 0.017 µM | about two orders of magnitude
HOOC-(CH2)2-CO-NH-(PEG)18-25-NH-(CH2)2-CO-Leu-Leu-Nle-H [Inhibitor 2] | – | – | – | > 100 µM | > 100 µM | 1.8 µM | –
